Assay results published in US20220072015A1, “Methods of Inhibiting Pathological Angiogenesis” (Unity Biotechnology, Inc., priority 2017, published 2022).

Assays:
[1] = test system: senescent fibroblasts (SnCs), IMR90 cells; experiment: Senolytic activity: killing irradiated senescent IMR90 fibroblasts vs replicating or quiescent fibroblasts (CellTiter-Glo); assay type: cell-based, human; details: for Best SI: specificity for senescent cells vs replicating or quiescent fibroblasts, 1.0 = non-specific; for senolytic activity, potency: result in words
From the text: Human fibroblast IMR90 cells can be obtained from the American Type Culture Collection (ATCC®) with the designation CCL-186. The cells are maintained at <75% confluency in DMEM containing FBS and Pen/Strep in an atmosphere of 3% O2, 10% CO2, and ˜95% humidity. The cells are divided into three groups: irradiated cells (cultured for 14 days after irradiation prior to use), proliferating normal cells (cultured at low density for one day prior to use), and quiescent cells (cultured at high density for four day prior to use).
On day 0, the irradiated cells are prepared as follows. IMR90 cells are washed, placed in T175 flasks at a density of 50,000 cells per mL, and irradiated at 10-15 Gy. Following irradiation, the cells are plated at 100 μL in 96-well plates. On days 1, 3, 6, 10, and 13, the medium in each well is aspirated and replaced with fresh medium.
On day 10, the quiescent healthy cells are prepared as follows. IMR90 cells are washed, combined with 3 mL of TrypLE trypsin-containing reagent (Thermofisher Scientific, Waltham, Mass.) and cultured for 5 min until the cells have rounded up and begin to detach from the plate. Cells are dispersed, counted, and prepared in medium at a concentration of 50,000 cells per mL. 100 μL of the cells is plated in each well of a 96-well plate. Medium is changed on day 13.
On day 13, the proliferating healthy cell population is prepared as follows. Healthy IMR90 cells are washed, combined with 3 mL of TrypLE and cultured for 5 minutes until the cells have rounded up and begin to detach from the plate. Cells are dispersed, counted, and prepared in medium at a concentration of 25,000 cells per mL. 100 μL of the cells is plated in each well of a 96-well plate.
On day 14, test Bcl-2 inhibitors or MDM2 inhibitors are combined with the cells as follows. A DMSO dilution series of each test compound is prepared at 200 times the final desired concentration in a 96-well PCR plate. Immediately before use, the DMSO stocks are diluted 1:200 into prewarmed complete medium. Medium is aspirated from the cells in each well, and 100 μL/well of the compound containing medium is added.
Candidate senolytic agents for testing are cultured with the cells for 6 days, replacing the culture medium with fresh medium and the same compound concentration on day 17. Bcl-2 inhibitors like 001967 are cultured with the cells for 3 days. The assay system uses the properties of a thermostable luciferase to enable reaction conditions that generate a stable luminescent signal while simultaneously inhibiting endogenous ATPase released during cell lysis. At the end of the culture period, 100 μL of CellTiter-Glo® reagent (Promega Corp., Madison, Wis.) is added to each of the wells. The cell plates are placed for 30 seconds on an orbital shaker, and luminescence is measured.
Furthermore, even if the compound is potent, it would not be suitable for use as a therapeutic unless it preferentially kills senescent cells with a high degree of selectivity. Accordingly, compounds in the library showing high Bcl binding affinity were further screened for their ability to kill irradiated fibroblasts, in comparison with replicating fibroblasts or fibroblasts that were quiescent (due to confluence) but not senescent.

Bcl isoforms = experiment: Binding affinity for the Bcl isoforms; details: result in words
From the text: The ability of candidate compounds to inhibit Bcl-2 and Bcl-xL activity can be measured on the molecular level by direct binding. This assay uses a homogenous assay technology based on oxygen channeling that is marketed by PerkinElmer Inc., Waltham, Mass.: see Eglin et al., Current Chemical Genomics, 2008, 1, 2-10. The test compound is combined with the target Bcl protein and a peptide representing the corresponding cognate ligand, labeled with biotin. The mixture is then combined with streptavidin bearing luminescent donor beads and luminescent acceptor beads, which proportionally reduces luminescence if the compound has inhibited the peptide from binding to the Bcl protein.
Bcl-2, Bcl-xL and Bcl-w are available from Sigma-Aldrich Co., St. Louis, Mo. Biotinylated BIM peptide (ligand for Bcl-2) and BAD peptide (ligand for Bcl-xL) are described in US 2016/0038503 A1. AlphaScreen® Streptavidin donor beads and Anti-6×His AlphaLISA® acceptor beads are available from PerkinElmer.
To conduct the assay, a 1:4 dilution series of the compound is prepared in DMSO, and then diluted 1:100 in assay buffer. In a 96-well PCR plate, the following are combined in order: 10 μL peptide (120 nM BIM or […]), 10 μL test compound, and 10 μL Bcl protein (0.8 nM Bcl-2/W or 0.4 nM Bcl-XL). The assay plate is incubated in the dark at room temperature for 24 h. The next day, donor beads and acceptor beads are combined, and 5 μL is added to each well. After incubating in the dark for 30 minute, luminescence is measured using a plate reader, and the affinity or degree of inhibition by each test compound is determined.

Row | SMILES | Best SI [1] | binding affinities (Ki) for the Bcl isoforms (Bcl isoforms) | senolytic activity, potency [1]
1 | CCn1c(C)c(C(=O)O)c(-c2cccc(N3CCN(c4ccc(NS(=O)(=O)c5ccc(N[C@H](CCN6CCC(O)CC6)CSc6ccccc6)c(S(=O)(=O)C(F)(F)F)c5)cc4)CC3)c2)c1-c1ccc(Cl)cc1 [BM-957] | 11.7 |  | 
2 | Cc1c(C(=O)O)c(-c2cccc(N3CCN(c4ccc(NS(=O)(=O)c5ccc(N[C@H](CCN6CCC(O)CC6)CSc6ccccc6)c(S(=O)(=O)C(F)(F)F)c5)cc4)CC3)c2)c(-c2ccc(Cl)cc2)n1C(C)C [BM-962] | 18.5 |  | 
3 | CCn1c(C)c(S(C)(=O)=O)c(-c2cc(F)cc(N3CCN(c4ccc(NS(=O)(=O)c5ccc(N[C@H](CCN6CCC(O)CC6)CSc6ccccc6)c(S(=O)(=O)C(F)(F)F)c5)cc4)CC3)c2)c1-c1ccc(F)cc1 [BM-1192] | 60.0 |  | 
4 | Cc1c(S(C)(=O)=O)c(-c2cc(F)cc(N3CCN(c4ccc(NS(=O)(=O)c5ccc(N[C@H](CCN6CCC(O)CC6)CSc6ccccc6)c(S(=O)(=O)C(F)(F)F)c5)cc4)CC3)c2)c(-c2ccc(F)cc2)n1C(C)C [BM-1195] | 128.7 | nanomole to picomole range | potent in the nanomole range
5 | Cc1c(S(C)(=O)=O)c(-c2cc(F)cc(N3CCN(c4ccc(NS(=O)(=O)c5ccc(N[C@H](CCN6CCC(O)CC6)CSc6ccccc6)c(S(=O)(=O)C(F)(F)F)c5)cc4)CC3)c2)c(-c2ccc(Cl)cc2)n1C(C)C [BM-1197] | 366.7 | nanomole to picomole range | potent in the nanomole range
6 | Cc1c(S(C)(=O)=O)c(-c2cc(F)cc(N3CCN(c4ccc(NS(=O)(=O)c5ccc(N[C@H](CCN6CCC(C(=O)O)CC6)CSc6ccccc6)c(S(=O)(=O)C(F)(F)F)c5)cc4)CC3)c2)c(-c2ccc(Cl)cc2)n1C(C)C [BM-1244] | 66.7 | nanomole to picomole range | 
